Data as given in US8735150B2, “Methods for detecting embryonic stem cells, induced pluripotent stem cells, or cells undergoing reprogramming to produce induced pluripotent stem cells” (New York University, priority 2010, dated 2014).

How the values were obtained:
iPSC = assay: CDy1 staining of iPSC colonies generated from Oct4-GFP transgenic mouse MEF; format: cell-based
Protocol: The retroviral packaging cell, PlatE cell, was maintained in DMEM containing 10% FBS, 100 U/ml penicillin, 100 μg/ml streptomycin, 10 μg/mlblasticidin S, and 1 μg/ml puromycin. For the generation of retroviruses, 40 μg of each retroviral vector expressing each mouse Oct4, Sox2, Klf4, and c-Myc was transfected together using Lipofectamine™ 2000 (Invitrogen, Carlsbad, Calif.) into PlatE cells plated at a density of 8×10^6 cells/10 cm cell culture dish and cultured overnight in DMEM containing 10% FBS. Medium was changed five hours after transfection to normal maintenance medium and incubated further in a humidified atmosphere of 5% CO2 and 95% air at 37° C. Culture supernatant was harvested 48 hours after transfection, filtered through a 0.45 μm syringe filter, concentrated by using amicon ultra-15 Centrifugal filter units (Millipore, Billerica, Mass.), and stored at −80° C. until use. For reprogramming, MEFs prepared from E13.5 B6; CBA-Tg(Pou5f1-EGFP)2Mnn/J mouse (Jackson Laboratory, Bar Harbor, Me.) embryo were infected with retrovirus mixture eight hours later. Polybrene (Sigma-Aldrich, St. Louis, Mo.) was added at a concentration of 10 μg/ml to increase virus adsorption. Infected MEFs were harvested 48 hours later by trypsinization and plated onto mytomycin C treated MEF feeder cells. The cells were maintained in mESC culture medium that was changed every day until designated time points.
The reprogramming was performed in a 6-well culture dish by retroviral introduction of four transcriptions factors: Oct4, Sox2, Klf4, and c-Myc (Takahashi et al., “Induction of Pluripotent Stem Cells from Mouse Embryonic and Adult Fibroblast Cultures by Defined Factors,” Cell, 126(4):663-676 (2006), which is hereby incorporated by reference in its entirety). iPSC generation was verified by GFP expression, alkaline phosphatase assay, and immunostaining of SSEA-1 at 17 days post infection (“dpi”). […] When the 155 colonies grown in 6-well plate cells were treated with CDy1 at 17 dpi, 101 colonies (65%) were both CDy1 and GFP positive, 26 (17%) were CDy1-only positive, 4 (3%) were GFP-only positive and 24 (15%) were negative both for CDy1 and GFP, despite the fact that the morphology of the colonies was indistinguishable (FIG. 9).
In a cell culture treated with CDy1 at an earlier time point of iPSC generation (10 dpi), increasing numbers of CDy1-stained colonies started to show GFP signal during the following days (FIG. 10A). To perform a more systematic analysis, the cells were stained with CDy1 at 2 dpi (i.e., when iPSC was not distinguishable by any means) and the CDy1 and GFP signals were tracked by daily acquisition of cell images using an ImageXpress^MICRO system. At 10 dpi, when small colonies started to appear, 342 CDy1-positive but GFP-negative colonies were selected and their GFP expression was followed until 25 dpi. An increasing number of colonies started to express GFP during this period, and 338 (99%) out of the 342 tracked colonies were GFP-positive at 25 dpi (FIG. 10B).

mESC [1] = assay: Flow cytometry of mESC and MEF incubated separately with rosamine hit compounds (secondary screening); format: cell-based, mouse; settings: 500 nM
Protocol: FIG. 5 is a table of flow cytometry results, which show the structure-cell selectivity relationship in CDy1 analogues. The ratios of mESC to MEF fluorescence mean values obtained from flow cytometry were used for cell selectivity analysis. The cells were incubated with 500 nM of each compound for one hour and washed with phosphate buffered saline (PBS) for flow cytometry.
MEFs and mESCs were cultured in 60 mm culture dishes for 24 hours in the presence of 500 nM of hit compounds including CDy1. The cells were harvested by trypsin treatment, washed with PBS, and resuspended in PBS. The fluorescence intensity of the cells was measured with flow cytometry (BD™ LSR II) with PE-Texas Red filter (excitation at 488 nm, emission at 615 nm). The dot plot images for each cell type were overlaid using FlowJo7 (Tree Star Inc., Ashland, Oreg.). […]
For a high-throughput screening, mESC and MEF feeder cells were incubated with 280 rosamine compounds at a concentration of 500 nM in 384-well microplates. After 0.5 hours, 24 hours, and 48 hours, TRITC fluorescence and bright field images were taken using an ImageXpress^MICRO imaging system. […] As a secondary screening, mESC and MEF were incubated separately with each of the hit compounds and these were analyzed using flow cytometry (see work flow set out in FIGS. 1A-1B; results shown in FIGS. 2A-2C and FIG. 3).

[2] = tested on: cells undergoing reprogramming to induced pluripotent stem cells (Oct4-GFP transgenic MEF); assay: FACS isolation of cells undergoing reprogramming with CDy1 and counting of GFP-positive iPS cell colonies; format: cell-based, mouse; settings: sorted by FACS at 10 dpi, 7% of total cell number
Protocol: Oct4-GFP transgenic mouse embryonic fibroblasts (MEF) transfected with retrovirus expressing Oct4, Sox2, Klf4, and c-Myc were incubated with CDy1 at 10 days post infection (dpi). The cells were harvested using trypsin-EDTA and CDy1^bright and CDy1^dim cells defined as 7% of the total cell number at each end were collected by FACS, plated in culture media, and allowed to grow until 20 dpi for counting the number of induced pluripotent stem (“iPS”) cell colonies which were identified by GFP signal (FIG. 15A).
Among the many cell colonies observed in the bright field images, GFP signal was detected from some of them by fluorescence excitation (FIG. 15B).

[3] = tested on: human lung cancer cell line H522; assay: Comparison of CDy1 and ALDEFLUOR staining in H522; format: cell-based; settings: fluorescence microscopy
Protocol: In this experiment, the cells cultured on 6-well plates were incubated with 1 μM ALDEFLUOR® for one hour at 37° C. and then washed with PBS three times before ALDEFLUOR® assay buffer was added. Bright field (“B.F”) and fluorescence (FITC filter for ALDEFLUOR® and TRITC filter for CDy1) images were taken using a Nikon ECLIPSE Ti fluorescence microscope (Scale bars, 100 μm).
Among the few fluorescent dyes used for stem cell staining (Zijlmans et al., “Modification of Rhodamine Staining Allows Identification of Hematopoietic Stem Cells with Preferential Short-term or Long-term Bone Marrow-Repopulating Ability,” Proc. Natl. Acad. Sci. USA, 92:8901-8905 (1995), which is hereby incorporated by reference in its entirety) is ALDEFLUOR® which employs a fluorescent substrate BODIPY-aminoacetaldehyde for aldehyde dehydrogenase (ALDH)1A1 (Storms et al., “Isolation of Primitive Human Hematopoietic Progenitors on the Basis of Aldehyde Dehydrogenase Activity,” Proc. Natl. Acad. Sci. USA, 96: 9118-9123 (1999), which is hereby incorporated by reference in its entirety). It has been used to identify and isolate certain types of stem cells including hematopoietic, neural, and mammary stem cells as well as cancer stem cells. Whether or not ALDEFLUOR® stains ESC has not been known. […] The stemness of hESC BG01V used in this study was verified by immunocytochemical staining of TRA-1-60 (FIG. 14).

mESC [4] = assay: FACS isolation of mESC from a MEF and mESC mixture stained with CDy1; Nanog RT-PCR and colony forming assay; format: cell-based, mouse
Protocol: MEFs and mESCs were cultured in 60 mm culture dishes for 24 hours in the presence of 500 nM of hit compounds including CDy1. The cells were harvested by trypsin treatment, washed with PBS, and resuspended in PBS. The fluorescence intensity of the cells was measured with flow cytometry (BD™ LSR II) with PE-Texas Red filter (excitation at 488 nm, emission at 615 nm). The dot plot images for each cell type were overlaid using FlowJo7 (Tree Star Inc., Ashland, Oreg.). For FACS, MEF and mESC were cultured in the same dish and the sample was prepared as described above for flow cytometry. The cells were gated into SSC^low CDy1^bright and SSC^high CDy1^dim regions and were collected using a FACS machine (BD FACS Aria™, BD Biosciences, Franklin Lakes, N.J.).
Total RNA was isolated from cells using RNeasy Mini Kit (QIAGEN Inc.) according to the manufacturer's instruction. cDNA was synthesized from 1 μg of total RNA using REVERTAID™ H Minus First strand cDNA Synthesis kit (Fermentas, Glen Burnie, Md.) and amplified by PCR using GOTAQ® Green Master Mix (Promega, Fitchburg, Wis.). The PCR conditions were as follows: 30 seconds denaturation at 95° C., 30 seconds annealing at 60° C., and a final 30 seconds of extension at 72° C. The sequences of primers used in this study are: Nanog (GenBank Accession No. NM_028016.1): sense 5′-[…]-3′ (SEQ ID NO:1), antisense 5′-[…]-3′ (SEQ ID NO:2); GAPDH (GenBank Accession No. XM—001473443.1): sense 5′-[…]-3′ (SEQ ID NO:3), antisense 5′-[…]-3′ (SEQ ID NO:4). The PCR products obtained after 25 cycles were resolved on 1% agarose gels, visualized by ethidium bromide staining, and the images were taken using a Gel Logic 200 Imaging System (Kodak, Rochester, N.Y.).
To evaluate the capability of CDy1 to isolate ESC from a mixed cell population, a MEF and mESC mixture was stained with CDy1, the mixed cells were gated into SSC^low CDy1^bright and SSC^high CDy1^dim regions, and 40,000 cells were collected by FACS from each gate for a stem cell marker Nanog gene expression analysis and colony forming assay. […]

mitochondria in mESC = assay: Co-staining of mESC with CDy1 and MITOTRACKER Deep Red 633; format: cell-based, mouse
Protocol: In this experiment mESC were incubated with 500 nM CDy1, 200 nM MITOTRACKER® Deep Red 633, and 4 mg/ml Hoechst for 30 minutes at 37° C. and washed with PBS two times. The cells were mounted on slide glass and the images were taken using a Nikon ECLIPSE Ti fluorescence microscope equipped with a ×100 objective lens (Pearson's correlation coefficient=0.88; scale bar, 5 μm).
In a previous study (Kim et al., “Control of Muscle Differentiation by a Mitochondria-Targeted Fluorophore,” J. Am. Chem. Soc. 132(2): 576-579 (2009), which is hereby incorporated by reference in its entirety), CDy1 was among the compounds targeting mitochondria. To examine whether CDy1 localizes in mitochondria in mESC, the cells were co-stained with CDy1 and a mitochondria-staining commercial dye MITOTRACKER® Deep Red 633. […] In addition to the mitochondrial membrane potential which sequesters many cationic rhodamine and rosamine compounds, other factors such as stem cell specific proteins appear to play roles in the entry and retainment of CDy1 rendering it stem cell selective.

[5] = 40,000 cells collected by FACS, three days culture

## CCCCN(CCCC)c1ccc2c(-c3cccc(CN4CCOCC4)c3)c3ccc(=N)cc-3oc2c1 [CDy1]
iPSC; 17 dpi, of 155 colonies
  colonies negative both for CDy1 and GFP (number): 24
  colonies negative both for CDy1 and GFP (percent): 15%
iPSC; of 342 CDy1-positive but GFP-negative colonies selected at 10 dpi
  colonies GFP-positive at 25 dpi (percent): 99%
iPSC; of 342 CDy1-positive but GFP-negative colonies selected at 10 dpi, stained at 2 dpi
  colonies GFP-positive at 25 dpi (number): 338
mESC [1]
  higher fluorescence intensity in mESC than in MEF (ratio of mESC to MEF fluorescence mean values): 12.2 fold
mESC [1]; mESC vs MEF
  mESC selectivity (in words): most selective for mESCs among the 20 hit compounds
[2]
  GFP-positive iPS cell colonies from CDy1dim cells: no colonies
  GFP-positive iPS cell colonies per well from CDy1bright cells: 51 colonies per well
[3]
  staining of H522: not
mESC [4]; [5]
  number of colonies from SSChigh CDy1dim cells: 6
  number of colonies from SSClow CDy1bright cells: 604
mESC [4]; RT-PCR
  Nanog expression in SSClow CDy1bright cells versus SSChigh CDy1dim cells: much higher
Mitochondria in mESC
  staining pattern compared with MITOTRACKER staining: very similar to MITOTRACKER® staining
Mitochondria in mESC; 500 nM CDy1, 200 nM MITOTRACKER Deep Red 633, 30 minutes at 37° C.
  Pearson's correlation coefficient of CDy1 and MITOTRACKER co-localization: 0.88
